Measurements as given in patent US12569534B2, “Therapeutic nanoparticles by coacervate complexation and their use for treating bacteria” (priority 2018, dated 2026).

What was measured:
K. pneumoniae = test: MIC/MBC broth microdilution, Example 1; format: cell-based, Klebsiella pneumoniae; details: Example 1 CS NPs
Experimental: To evaluate antibacterial efficacy of the CS NPs, their minimum inhibitory concentration (MIC) and minimum bactericidal concentration (MBC) were assessed against 5 reference bacterial strains and 39 clinical isolates of carbapenem-resistant A. baumannii, P. aeruginosa, E. coli, and K. pneumoniae.
(§1) Reference bacterial stains were purchased from ATCC. Clinical isolates of carbapenem-resistant bacteria were obtained from National Health Research Institutes (NHRI) and Tri-Service General Hospital (TSGH). MIC is defined as the lowest concentration of antibiotics required to inhibit the growth of bacteria. MBC is defined as the lowest concentration of antibiotics required to eradicate microorganisms. The MICs of CS and the CS NPs were determined using a broth microdilution method. Bacterial suspensions were adjusted to a turbidity of McFarland 0.5±0.05 and cultured overnight with different concentrations of CS or CS NPs. A control group without antimicrobial treatment was prepared as a reference. Following overnight incubation, solution turbidity was determined by visual inspection. Culture wells with no observable turbidity were further sub-cultured for MBC evaluation. Solutions from the clear wells were deposited onto an agar plate and cultured overnight to determine the MBCs.

P. aeruginosa = test: MIC/MBC broth microdilution, Example 2; format: cell-based, Pseudomonas aeruginosa; details: Example 2 CS NPs
Experimental: as §1
(§2) To evaluate the antibacterial efficacy of the CS NPs of this study, their MIC and MBC were assessed against 5 reference bacterial strains and 20 clinical isolates of carbapenem-resistant A. baumannii, E. coli, K. pneumoniae, and P. aeruginosa according to the procedures set forth in EXAMPLE 1. Reference bacterial stains were purchased from ATCC. Carbapenem-resistant clinical isolated were obtained from NHRI.

E. coli = test: MIC/MBC broth microdilution, Example 2; format: cell-based; details: Example 2 CS NPs
Experimental: as §1, §2

E. Coli ATCC 25922 = test: MIC and MBC of different treatments, Example 3; format: cell-based
Experimental: as §1

CS release by dialysis = format: physicochemical; details: 50 k MWCO membrane, 37° C., pH 7.4 and pH 5.0
Experimental: CS release from the CS NPs was studied using a dialysis tube with 50 k MWCO membrane (Pur-A-Lyzer™ Maxi Dialysis Kit, Sigma-Aldrich) in 0.15 M phosphate buffer (pH 7.4) and in 0.15 M acetate buffer solution (pH 5.0). […] Samples were each placed into a dialysis tube at 37° C. under gentle stirring. At predetermined time points, the samples were collected and analyzed for CS content using HPLC.

A. baumannii 17978 = test: Murine model of A. baumannii pneumonia, survival; format: in vivo; details: C57BL/6 mice, 5 mg/kg i.v. twice a day
Experimental: Briefly, A. baumannii 17978 were grown in 30 mL LB broth under shaking at 37° C. to reach the mid-logarithmic phase. The bacteria were then pelleted by centrifugation at 4,000 g for 15 minutes. The bacteria pellet was resuspended in PBS and mixed with 5% mucin derived from porcine stomach (type 3; Sigma-Aldrich, Taiwan).
To induce A. baumannii pneumonia, 8-week-old C57BL/6 mice (National Laboratory Animal Center, Taiwan) were first anesthetized with 2% tribromoethanol (Avertin; 0.018 mL/g). 6.07×10^8 CFU of A. baumannii 17978 were then administered to the mice via intra-tracheal injection to induce pneumonia (FIG. 4A). At 2 hours post-inoculation, the mice were treated twice a day with PBS (as the control), CS, or CS NPs at 5 mg/kg via intravenous injections.
The efficacy between CS and the CS NPs was compared by survival analysis. The difference in survival among the groups was analyzed by a Log-rank test using GraphPad Prism. Treatment efficacy of CS and CS NPs was observed 36 hour post-infection as no mortality was recorded in either of the two drug treatment groups whereas 37.5% of the control group animals were deceased. […] The survival outcome supports retention of CS's antimicrobial activity following nanoparticle assembly.

[1] = clinical carbapenem-resistant K. pneumoniae NHRI 1
[2] = clinical carbapenem-resistant K. pneumoniae NHRI 2
[3] = clinical carbapenem-resistant K. pneumoniae NHRI 4
[4] = clinical carbapenem-resistant K. pneumoniae NHRI 5
[5] = clinical carbapenem-resistant K. pneumoniae TSGH 1
[6] = clinical carbapenem-resistant K. pneumoniae TSGH 3
[7] = clinical carbapenem-resistant K. pneumoniae TSGH 5
[8] = clinical carbapenem-resistant K. pneumoniae TSGH 7
[9] = clinical carbapenem-resistant K. pneumoniae TSGH 9
[10] = clinical carbapenem-resistant K. pneumoniae TSGH 11
[11] = clinical carbapenem-resistant K. pneumoniae TSGH 13
[12] = clinical carbapenem-resistant K. pneumoniae TSGH 15
[13] = clinical carbapenem-resistant K. pneumoniae TSGH 16
[14] = clinical carbapenem-resistant K. pneumoniae TSGH 17
[15] = clinical carbapenem-resistant K. pneumoniae TSGH 18
[16] = clinical carbapenem-resistant K. pneumoniae TSGH 19
[17] = clinical carbapenem-resistant isolate P. aeruginosa NHRI 1
[18] = clinical carbapenem-resistant isolate P. aeruginosa NHRI 2
[19] = clinical carbapenem-resistant isolate P. aeruginosa NHRI 3
[20] = clinical carbapenem-resistant isolate P. aeruginosa NHRI 4
[21] = clinical carbapenem-resistant isolate P. aeruginosa NHRI 5
[22] = reference strain P. aeruginosa 27853
[23] = clinical carbapenem-resistant isolate E. coli NHRI 1
[24] = clinical carbapenem-resistant isolate E. coli NHRI 2
[25] = clinical carbapenem-resistant isolate E. coli NHRI 3
[26] = clinical carbapenem-resistant isolate E. coli NHRI 4
[27] = clinical carbapenem-resistant isolate E. coli NHRI 5

In the case of colistin [CS], the MBC (K. pneumoniae; [1]) is reported as 4 µg/mL, the MIC (K. pneumoniae; [1]) is reported as 2 µg/mL and the MBC (K. pneumoniae; [2]) is reported as 2 µg/mL. For the same substance, the MIC (K. pneumoniae; [2]) was 2 µg/mL, the MBC (K. pneumoniae; [3]) was 2 µg/mL and the MIC (K. pneumoniae; [3]) was 2 µg/mL. It also gave an MBC (K. pneumoniae; [4]) of 2 µg/mL, an MIC (K. pneumoniae; [4]) of 2 µg/mL and an MBC (K. pneumoniae; [5]) of 2 µg/mL. For the same substance, the MIC (K. pneumoniae; [5]) was 2 µg/mL, the MBC (K. pneumoniae; [6]) was 1 µg/mL and the MIC (K. pneumoniae; [6]) was 1 µg/mL. The MBC (K. pneumoniae; [7]) was 1 µg/mL, the MIC (K. pneumoniae; [7]) was 1 µg/mL and the MBC (K. pneumoniae; [8]) was 1 µg/mL. For the same substance, the MIC (K. pneumoniae; [8]) was 1 µg/mL, the MBC (K. pneumoniae; [9]) was 2 µg/mL and the MIC (K. pneumoniae; [9]) was 1 µg/mL. For the same substance, the MBC (K. pneumoniae; [10]) was 4 µg/mL, the MIC (K. pneumoniae; [10]) was 4 µg/mL and the MBC (K. pneumoniae; [11]) was 2 µg/mL. For the same substance, the MIC (K. pneumoniae; [11]) was 1 µg/mL, the MBC (K. pneumoniae; [12]) was 1 µg/mL and the MIC (K. pneumoniae; [12]) was 1 µg/mL. The MBC (K. pneumoniae; [13]) was 2 µg/mL, the MIC (K. pneumoniae; [13]) was 2 µg/mL and the MBC (K. pneumoniae; [14]) was 1 µg/mL. For the same substance, the MIC (K. pneumoniae; [14]) was 1 µg/mL, the MBC (K. pneumoniae; [15]) was 1 µg/mL and the MIC (K. pneumoniae; [15]) was 1 µg/mL. For the same substance, the MBC (K. pneumoniae; [16]) was 4 µg/mL, the MIC (K. pneumoniae; [16]) was 1 µg/mL and the MBC (P. aeruginosa; [17]) was 4 µg/mL. For the same substance, the MIC (P. aeruginosa; [17]) was 1 µg/mL, the MBC (P. aeruginosa; [18]) was 4 µg/mL and the MIC (P. aeruginosa; [18]) was 2 µg/mL. The MBC (P. aeruginosa; [19]) was 4 µg/mL, the MIC (P. aeruginosa; [19]) was 1 µg/mL and the MBC (P. aeruginosa; [20]) was 4 µg/mL. For the same substance, the MIC (P. aeruginosa; [20]) was 2 µg/mL, the MBC (P. aeruginosa; [21]) was 4 µg/mL and the MIC (P. aeruginosa; [21]) was 1 µg/mL. It also gave an MBC (P. aeruginosa; [22]) of 2 µg/mL, an MIC (P. aeruginosa; [22]) of 1 µg/mL and an MBC (E. coli; [23]) of 2 µg/mL. The MIC (E. coli; [23]) was 2 µg/mL, the MBC (E. coli; [24]) was 2 µg/mL and the MIC (E. coli; [24]) was 1 µg/mL. It also gave an MBC (E. coli; [25]) of 2 µg/mL, an MIC (E. coli; [25]) of 1 µg/mL and an MBC (E. coli; [26]) of 1 µg/mL. It also gave an MIC (E. coli; [26]) of 1 µg/mL, an MBC (E. coli; [27]) of 0.5 µg/mL and an MIC (E. coli; [27]) of 0.5 µg/mL. It also gave an MBC (E. coli; reference strain E. coli 25922) of 2 µg/mL, an MIC (E. coli; reference strain E. coli 25922) of 1 µg/mL and an MBC (E. Coli ATCC 25922) of 4 µg/mL. The MIC (E. Coli ATCC 25922) was 2 µg/mL, the “release profile in dialysis” value (CS release by dialysis) was “rapidly dialyzed from the setup” and the mortality (A. baumannii 17978; 36 hour post-infection) was “no mortality”. For the same substance, the “surviving mice out of 8 assessed animals” value (A. baumannii 17978; 72 hours of observation) was 4.
